Assay results: patent US5220018A, “Cholecystokinin antagonists” (Merck & Co., Inc., priority 1992, dated 1993)
Like-named read-outs stand apart in the source and are kept apart here.

Assays:
[1] = target: T1, CCK Receptor (Brain) (Cavia porcellus, UniProt H0VZC5); test: CCK Receptor Binding (Brain), inhibition of 125I-CCK-8 binding; design: species or system Male Hartley guinea pigs
T1 construct: the cortex was removed and homogenized in 25 mL ice-cold 0.32M sucrose; from tissue; host or cells: guinea pig cerebral cortex, P2 membrane pellet
T1 sequence (H0VZC5 1-426): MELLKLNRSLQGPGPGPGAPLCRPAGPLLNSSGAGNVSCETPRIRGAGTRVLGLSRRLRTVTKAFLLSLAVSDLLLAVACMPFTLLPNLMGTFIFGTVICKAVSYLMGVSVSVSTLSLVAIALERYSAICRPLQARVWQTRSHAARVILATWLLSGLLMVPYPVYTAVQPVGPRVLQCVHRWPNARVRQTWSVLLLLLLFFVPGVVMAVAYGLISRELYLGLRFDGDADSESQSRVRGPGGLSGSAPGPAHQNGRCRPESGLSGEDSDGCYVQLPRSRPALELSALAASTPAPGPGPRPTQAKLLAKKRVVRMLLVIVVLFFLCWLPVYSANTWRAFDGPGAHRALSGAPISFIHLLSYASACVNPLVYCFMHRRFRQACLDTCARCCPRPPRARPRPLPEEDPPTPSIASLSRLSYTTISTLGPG
Protocol: 2. CCK Receptor Binding (Brain)
CCK-8 sulphated was radiolabelled and the binding was performed according to the description for the pancreas method with minor modifications.
Male Hartley guinea pigs (300-500 g) were sacrificed by decapitation and the cortex was removed and homogenized in 25 mL ice-cold 0.32M sucrose. The homogenates were centrifuged at 1000 g for 10 minutes and the resulting supernatant was recentrifuged at 20,000 g for 20 minutes. […] All assays were run in duplicate. The reaction mixtures were incubated at 25° C. for 2 hours and then the reaction was terminated on Whatman GF/C filters by rapid filtration (Brandell 24 well cell Harvester) with 3×5 ml washes of cold 100 mM NaCl. The radioactivity on the filters was then counted with a LKB gamma counter.
(§1) Drug displacement studies were performed with at least 10 concentrations of compounds of formula 1 and the IC50 values were determined by regression analysis.

[2] = target: T2, CCK Receptor (Pancreas) (Rattus norvegicus, UniProt P30551); test: biochemical; type: binding, Male Sprague-Dawley rats
T2 construct: The whole pancreas was dissected free of fat tissue and was homogenized; from tissue; host or cells: rat whole pancreas, homogenate membranes
T2 sequence (P30551 1-444): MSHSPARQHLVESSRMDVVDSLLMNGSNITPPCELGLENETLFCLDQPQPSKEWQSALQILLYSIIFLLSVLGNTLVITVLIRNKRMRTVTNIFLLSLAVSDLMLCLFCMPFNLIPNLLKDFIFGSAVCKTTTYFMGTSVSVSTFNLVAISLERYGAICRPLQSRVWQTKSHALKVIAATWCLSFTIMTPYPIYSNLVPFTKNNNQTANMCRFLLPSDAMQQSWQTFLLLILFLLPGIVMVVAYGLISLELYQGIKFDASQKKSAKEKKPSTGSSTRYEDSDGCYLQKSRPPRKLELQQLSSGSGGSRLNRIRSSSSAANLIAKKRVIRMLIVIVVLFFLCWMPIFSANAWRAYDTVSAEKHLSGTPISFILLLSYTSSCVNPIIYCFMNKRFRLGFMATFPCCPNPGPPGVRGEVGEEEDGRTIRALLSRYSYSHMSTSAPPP
Protocol: 1. CCK Receptor Binding (Pancreas)
CCK-8 sulphated was radiolabelled with ^125 I-Bolton Hunter reagent (2000 Ci/mmole). Receptor binding was performed according to Chang and Lotti (Proc. Natl. Acad. Sci. 83, 4923-4926, 1986) with minor modifications.
Male Sprague-Dawley rats (150-200 g) were sacrificed by decapitation. The whole pancreas was dissected free of fat tissue and was homogenized in 25 volumes of ice-cold 10 mM Hepes buffer with 0.1% soya bean trypsin inhibitor (pH 7.4 at 25° C.) with a Kinematica Polytron. The homogenates were centrifuged at 47,800 g for 10 min. Pellets were resuspended in 10 volumes of binding assay buffer (20 mM Hepes, 1 mM EGTA, 5 mM MgCl2, 150 mM NaCl, bacitracin 0.25 mg/ml, soya bean trypsin inhibitor 0.1 mg/ml, and bovine serum albumin 2 mg/ml, pH 6.5 at 25° C.) using a teflon homogenizer, 15 strokes at 500 rpm. The homogenate was further diluted in binding assay buffer to give a final concentration of 0.5 mg original wet weight/1 ml buffer. […] All assays were run in duplicate. The reaction mixtures were incubated at 25° C. for 2 hours and the reaction terminated by rapid filtration (Brandell 24 well cell harvester) over Whatman GF/C filters, washing 3×4 mls with ice-cold 100 mM NaCl. The radioactivity on the filters was counted with a LKB gamma counter.
as §1

[3] = guinea pig cortex membranes, 125I-CCK-8 50 pM, 25° C., 2 hours, read-out: IC50, 125I-CCK Brain
[4] = rat pancreas membranes, 125I-CCK-8 50 pM, 25° C., 2 hours, read-out: IC50, 125I-CCK Pancreas

Compound | IC50 [1, 3] [nM] | IC50 [2, 4] [nM] | IC50 [1] [nM] | IC50 [2] [nM]
CN1C(=O)[C@H](NC(=O)Nc2cccc(C(=O)NS(=O)(=O)C(C)(C)C)c2)N=C(c2ccccc2)c2ccccc21 [Example 25, N-{1,3-Dihydro-1-methyl-2-oxo-5-phenyl-1H-1,4-benzodiazepin-3-yl}-N'-{[3-(N-(t-butylsulfonyl)carboxamido)phenyl]urea}] | 0.38 | > 3000 | – | –
CC(C)NC(=O)NC(=O)c1cccc(NC(=O)N[C@@H]2N=C(c3ccccc3)c3ccccc3N(C)C2=O)c1 [Example 26, N-{1,3-Dihydro-1-methyl-2-oxo-5-phenyl-1H-1,4-benzodiazepin-3-yl}-N'-{[3-(N-(2-propylaminocarbonyl)carboxamido)phenyl]urea}] | 410 | > 3000 | – | –
CC(=O)NS(=O)(=O)c1cccc(NC(=O)N[C@@H]2N=C(c3ccccc3)c3ccccc3N(CC3CC3)C2=O)c1 [Example 27, N-{1,3-Dihydro-1-cyclopropylmethyl-2-oxo-5-phenyl-1H-1,4-benzodiazepin-3-yl}-N'-{[3-(N-(acetyl)sulfonamido)phenyl]urea}] | 0.55 | 4600 | – | –
CN1C(=O)[C@H](NC(=O)Nc2cccc(S(=O)(=O)NC(=O)C(C)(C)C)c2)N=C(c2ccccc2)c2ccccc21 [Example 28, N-{1,3-Dihydro-1-methyl-2-oxo-5-phenyl-1H-1,4-benzodiazepin-3-yl}-N'-{[3-(N-(1,1-dimethylethylcarbonyl)sulfonamido)phenyl]urea}] | 12 | > 3000 | – | –
CN1C(=O)[C@H](NC(=O)Nc2cccc(S(=O)(=O)NC(=O)C3CC3(C)C)c2)N=C(c2ccccc2)c2ccccc21 (stereo partly shown) [Example 29, N-{1,3-Dihydro-1-methyl-2-oxo-5-phenyl-1H-1,4-benzodiazepin-3-yl}-N'-{[3-(N-(2,2-dimethylcyclopropylcarbonyl)sulfonamido)phenyl]urea}] | 11 | > 3000 | – | –
CN1C(=O)[C@H](NC(=O)Nc2cccc(S(=O)(=O)NC(=O)NC(C)(C)C)c2)N=C(c2ccccc2)c2ccccc21 [Example 30, N-{1,3-Dihydro-1-methyl-2-oxo-5-phenyl-1H-1,4-benzodiazepin-3-yl}-N'-{[3-(N-(t-butylaminocarbonyl)sulfonamido)phenyl]urea}] | 14 | > 3000 | – | –
CN1C(=O)[C@H](NC(=O)Nc2cccc(S(=O)(=O)NP(=O)(Oc3ccccc3)Oc3ccccc3)c2)N=C(c2ccccc2)c2ccccc21 [Example 31, N-{1,3-Dihydro-1-methyl-2-oxo-5-phenyl-1H-1,4-benzodiazepin-3-yl}-N'-{[3-(N-(diphenylphosphono)sulfonamido)phenyl]urea}] | – | – | 15 | > 3000
CN1C(=O)[C@H](NC(=O)Nc2cccc(/C=C/C(=O)O)c2)N=C(c2ccccc2)c2ccccc21 [Example 32, N-{1,3-Dihydro-1-methyl-2-oxo-5-phenyl-1H-1,4-benzodiazepin-3-yl}-N'-{[3-(trans-carboxyethylene)phenyl]urea}] | 8.9 | 12 | – | –
CN1C(=O)[C@H](NC(=O)Nc2cccc(-c3nnn(C)n3)c2)N=C(c2ccccc2)c2ccccc21 [Example 33, N-{1,3-Dihydro-1-methyl-2-oxo-5-phenyl-1H-1,4-benzodiazepin-3-yl}-N'-{[3-(2-methyltetrazol-5-yl)phenyl]urea}] | 21 | – | – | 1600
CN1C(=O)[C@H](NC(=O)Nc2cccc(-c3noc(=O)[nH]3)c2)N=C(c2ccccc2)c2ccccc21 [Example 34, N-{1,3-Dihydro-1-methyl-2-oxo-5-phenyl-1H-1,4-benzodiazepin-3-yl}-N'-{[3-(1,2,4-oxadiazol-5-one)phenyl]urea}] | 0.19 | 1100 | – | –
O=C(Nc1cccc(-c2noc(=O)[nH]2)c1)N[C@@H]1N=C(c2ccccc2)c2ccccc2N(CC2CC2)C1=O [Example 35, N-{1,3-Dihydro-1-cyclopropylmethyl-2-oxo-5-phenyl-1H-1,4-benzodiazepin-3-yl}-N'-{[3-(1,2,4-oxadiazol-5-one)phenyl]urea}] | 0.09 | 190 | – | –
